Values quoted from earlier work in US12257290B2, “PIC1 inhibition of myeloperoxidase oxidative activity in an animal model” (priority 2018, dated 2025).

Details: intranasal administration; animal models; cited from earlier work

## DNase
  symptoms of TRALI: reduced symptoms of TRALI
